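Dose response: 5 concentrations. Exposure: 48 h. Format: 96-well plates. Endpoint: linear interpolation; highest concentration if not reached. The concentration for 50% growth inhibition is given as GI50. TGI is the concentration that stops growth completely.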
Assays:
Test in all cases: NCI tumour cell line growth inhibition, 48 h
KM12 colon = system: KM12 colon
OVCAR-3 ovarian = system: OVCAR-3 ovarian
UACC-62 melanoma = system: UACC-62 melanoma
U251 CNS = system: U251 CNS
EKVX NSCLC = system: EKVX NSCLC
LOX IMVI melanoma = system: LOX IMVI melanoma
NCI-H522 lung = system: NCI-H522 lung
IGROV1 ovarian = system: IGROV1 ovarian
HL-60(TB) leukemia = system: HL-60(TB) leukemia
PC-3 prostate = system: PC-3 prostate

Row | Compound | GI50 (KM12 colon) [µM] | TGI (KM12 colon) [µM] | GI50 (OVCAR-3 ovarian) [µM] | TGI (OVCAR-3 ovarian) [µM] | GI50 (UACC-62 melanoma) [µM] | TGI (UACC-62 melanoma) [µM] | GI50 (U251 CNS) [µM] | TGI (U251 CNS) [µM] | GI50 (EKVX NSCLC) [µM] | TGI (EKVX NSCLC) [µM] | GI50 (LOX IMVI melanoma) [µM] | TGI (LOX IMVI melanoma) [µM] | GI50 (NCI-H522 lung) [µM] | TGI (NCI-H522 lung) [µM] | GI50 (IGROV1 ovarian) [µM] | TGI (IGROV1 ovarian) [µM] | GI50 (HL-60(TB) leukemia) [µM] | TGI (HL-60(TB) leukemia) [µM] | TGI (PC-3 prostate) [µM] | GI50 (PC-3 prostate) [µM]
1 | CCCCCCC[CH2][Sn]1([CH2]CCCCCCC)[O]C(=O)c2cccnc2[S]1 | > 100 | > 100 | > 100 | > 100 | > 100 | > 100 | > 100 | > 100 | > 100 | > 100 | > 100 | > 100 | > 100 | > 100 | > 100 | > 100 | > 100 | > 100 |  | 
2 | O=c1cc(-c2ccccc2)[nH]c2c(S)cccc12 |  | > 100 |  | > 100 |  | > 100 |  | > 100 |  |  |  |  |  | > 100 |  | > 100 |  | > 100 | > 100 | 
3 | CCCCCCNC(=O)c1nc(-c2ccccc2)oc1Cc1ccc(OP(=O)(O)O)cc1 | 17.5 | 33.2 | 17.1 | 31.4 | 14 | 27.9 | 15.7 | 29.9 |  |  | 16.4 | 30.2 | 16.1 | 34.5 | 15.2 | 31.2 | 25.2 | 62.4 | 34.5 | 17.9
4 | CC1=CC(=O)[C@@H](O)[C@]2(C)[C@H]3[C@@]4(O)OC[C@]35[C@H]([C@@H](C)[C@H]4O)[C@@H](O)C(=O)O[C@@H]5C[C@@H]12 |  | 1.72 |  | 2.11 |  | 6.29 |  | 0.379 |  | 6.31 |  | 0.62 |  | 0.7 |  | 3.42 |  |  | 1.67 | 
5 | COC(=O)[C@]1(C)CCCC2(C)C1CC[C@H]1C=C(C)[C@H]3CCC12C3 (stereo not given in full) |  | > 100 |  | > 100 |  | > 100 |  | > 100 |  |  |  | > 100 |  | > 100 |  | > 100 |  | > 100 |  | 
6 | c1ccc(SC2CCSc3ccccc3C2Sc2ccccc2)cc1 (stereo not given) |  | > 100 |  | > 100 |  |  |  | > 100 |  | > 100 |  | > 100 |  | > 100 |  |  |  | > 100 |  | 
7 | CCc1c(OC(C)=O)c2c(NC3OC(COC(C)=O)C(OC(C)=O)C(OC(C)=O)C3OC(C)=O)nc(OC)nc2oc1=O (stereo not given) |  | > 100 |  | > 100 |  | > 100 |  | > 100 |  | > 100 |  | > 100 |  |  |  | > 100 |  | > 100 |  | 
8 | O=C(CSc1nnc(-c2ccc(N=Cc3ccc(Cl)cc3)cc2)o1)Nc1ccc(Cl)cc1 |  | > 100 |  |  |  | > 100 |  | > 100 |  | > 100 |  | > 100 |  | > 100 |  |  |  | > 100 |  | 
9 | Cc1ccc(S(=O)(=O)N/N=C/c2oc(-c3ccncc3)c(-c3ccncc3)c2[N+](=O)[O-])cc1 |  | > 100 |  | > 100 |  | > 100 |  | > 100 |  | > 100 |  | > 100 |  | > 100 |  | > 100 |  | > 100 |  | 
10 | COC1[C@@H](OC(C)=O)[C@@H](NC(=O)C(Cl)(Cl)Cl)C(I)[C@@H](N2C(=O)c3ccccc3C2=O)[C@H]1OC (stereo not given in full) |  | > 100 |  |  |  | > 100 |  | > 100 |  | > 100 |  | > 100 |  | > 100 |  | > 100 |  | > 100 |  | 
11 | O=C(O)[C@H](NS(=O)(=O)c1ccc2ccccc2c1)c1ccccc1 |  |  |  |  |  | > 100 |  | > 100 |  |  |  | > 100 |  | > 100 |  | > 100 |  | > 100 |  | 
12 | Cc1ccc(NC(=O)C2C(=O)N(c3ccc(C)c(C)c3)C(=O)C2N=N)cc1C (stereo not given) |  | > 100 |  | > 100 |  | > 100 |  | > 100 |  | > 100 |  |  |  | > 100 |  | > 100 |  | > 100 |  | 
13 | CS(=O)(=O)CCCn1c(=O)c(Oc2ccc(F)cc2F)cc2cnc(NC3CCOCC3)nc21 | > 25 | > 25 | > 25 | > 25 | > 25 | > 25 | > 25 | > 25 |  |  | > 25 | > 25 | > 25 | > 25 | > 25 | > 25 | > 25 | > 25 | > 25 | > 25
14 | CCc1cccc(C)c1NC(=O)C(=O)Cc1nc2ccccc2o1 |  |  |  | > 100 |  | > 100 |  | > 100 |  | > 100 |  | > 100 |  | > 100 |  | > 100 |  | > 100 |  | 
15 | CCOC(=O)C1(c2ccccc2)CCC(=O)CC1 |  | > 100 |  | > 100 |  | > 100 |  | > 100 |  | > 100 |  | > 100 |  | > 100 |  | > 100 |  | > 100 |  | 
16 | CC(=C\c1ccccc1)/C=C(\C#N)C(N)=O |  | > 10 |  | > 10 |  |  |  | > 10 |  | > 10 |  | > 10 |  | > 10 |  | > 10 |  |  | > 10 | 
17 | COc1ccc(-c2cc(-c3ccccc3)c(C#N)c(=O)n2C2OC(CO)C(O)C(O)C2O)cc1 (stereo not given) |  | > 100 |  | > 100 |  | > 100 |  | > 100 |  | > 100 |  | > 100 |  | > 100 |  | > 100 |  | > 100 |  | 
18 | C[C@H]1NC(=O)C2CCCCN2C(=O)CN(C)C(=O)CNC(=O)C2CCCCN2C(=O)[C@@H](NC(=O)c2nc3ccccc3cc2O)[C@@H](C)NC(=O)C2CCCCN2C(=O)CN(C)C(=O)CNC(=O)[C@@H]2CCCCN2C(=O)C1NC(=O)c1nc2ccccc2cc1O (stereo not given in full) |  | 18.7 |  | 0.773 |  | 0.105 |  | 36.6 |  | 23.2 |  | > 100 |  | 0.494 |  | > 100 |  | 4.72 |  | 
19 | CC(C)=CCc1cc(O)cc2c1OC(C=C(C)C)C1=C2C(=O)C2=C(NCCS2(=O)=O)C1=O (stereo not given) | 4.29 | > 16.7 | 0.456 | 2.01 | 0.875 | 3.5 | 2.79 | 5.25 | 2.73 | 9.57 | 2.04 | 5 | 2.64 | 7.41 | 2.15 | 5.43 |  |  | > 16.7 | 4.14
20 | COc1ccc(NC(=O)/C(N=O)=C(/C)O)cc1 |  | > 100 |  |  |  | > 100 |  | > 100 |  | > 100 |  | 47.9 |  |  |  | > 100 |  | > 100 |  | 
